Assay results: patent US12441754B2, “Galactoside inhibitor of galectins” (GALECTO BIOTECH AB, priority 2019, dated 2025)
Read-outs that look alike come from different tables or passages of the source.

Legend:
Galectin-1 = Galectin-1 (Homo sapiens, UniProt P09382); experiment: fluorescence anisotropy assay, compound as inhibitor of galectin / fluorescein tagged saccharide probe interaction; format: binding
Description: (§1) Anal. Biochem. 334: 36-47, (Sörme et al., 2004) and Monovalent interactions of Galectin-1 By Salomonsson, Emma; Larumbe, Amaia; Tejler, Johan; Tullberg, Erik; Rydberg, Hanna; Sundin, Anders; Khabut, Areej; Frejd, Torbjorn; Lobsanov, Yuri D.; Rini, James M.; et al, From Biochemistry (2010), 49(44), 9518-9532, (Salomonsson et al., 2010).

Galectin-3 = Galectin-3 (Homo sapiens, UniProt P17931); experiment: as above; format: binding
Galectin-3, sequence (P17931 whole entry): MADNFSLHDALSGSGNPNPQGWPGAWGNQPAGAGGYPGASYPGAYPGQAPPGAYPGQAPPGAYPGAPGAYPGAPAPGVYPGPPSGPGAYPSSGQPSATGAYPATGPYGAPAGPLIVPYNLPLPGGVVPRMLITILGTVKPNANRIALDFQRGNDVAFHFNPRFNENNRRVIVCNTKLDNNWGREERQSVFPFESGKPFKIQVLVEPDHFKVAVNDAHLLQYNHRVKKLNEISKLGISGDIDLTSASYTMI
Description: as §1

Galectin-1, sequence (P09382 whole entry): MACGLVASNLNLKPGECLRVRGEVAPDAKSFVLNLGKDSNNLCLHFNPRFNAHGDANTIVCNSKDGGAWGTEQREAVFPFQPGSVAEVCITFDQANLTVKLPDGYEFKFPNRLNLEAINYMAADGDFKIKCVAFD

| Structure (SMILES) | Kd (Galectin-1) [nM] | Kd (Galectin-3) [nM] | Kd (Galectin-1; read-out: Galectin-1 Kd) [nM] |
| --- | --- | --- | --- |
| CO[C@@H]1[C@@H](n2cc(-c3nccs3)nn2)[C@@H](O)[C@@H](CO)O[C@@H]1Sc1cncc(Br)c1 [Example 2, 5-Bromopyridin-3-yl 3-deoxy-2-O-methyl-3-[4-(2-thiazolyl)-1H-1,2,3-triazol-1-yl]-1-thio-α-D-galactopyranoside] | 230 | 3000 |  |
| CO[C@@H]1[C@@H](n2cc(-c3nccs3)nn2)[C@@H](O)[C@@H](CO)O[C@@H]1Sc1cc(Br)cnc1C#N [Example 3, 5-Bromo-2-cyanopyridin-3-yl 3-deoxy-2-O-methyl-3-[4-(2-thiazolyl)-1H-1,2,3-triazol-1-yl]-1-thio-α-D-galactopyranoside] | 110 | 1100 |  |
| CO[C@@H]1[C@@H](n2cc(-c3nccs3)nn2)[C@@H](O)[C@@H](CO)O[C@@H]1Sc1cc(Cl)cnc1C#N [Example 4, 5-Chloro-2-cyanopyridin-3-yl 3-deoxy-2-O-methyl-3-[4-(2-thiazolyl)-1H-1,2,3-triazol-1-yl]-1-thio-α-D-galactopyranoside] | 110 | 1200 |  |
| N#Cc1ncc(Cl)cc1S[C@H]1O[C@H](CO)[C@H](O)[C@H](n2cc(-c3nccs3)nn2)[C@H]1OCc1ccccc1 [Example 5, 5-Chloro-2-cyanopyridin-3-yl 2-O-benzyl-3-deoxy-3-[4-(2-thiazolyl)-1H-1,2,3-triazol-1-yl]-1-thio-α-D-galactopyranoside] | 190 | 1800 |  |
| N#Cc1ncc(Cl)cc1S[C@H]1O[C@H](CO)[C@H](O)[C@H](n2cc(-c3nccs3)nn2)[C@H]1OCc1cc(F)c(O)c(F)c1 [Example 6, 5-Chloro-2-cyanopyridin-3-yl 3-deoxy-2-O-(3,5-difluoro-4-hydroxybenzyl)-3-[4-(2-thiazolyl)-1H-1,2,3-triazol-1-yl]-1-thio-α-D-galactopyranoside] | 96 | 950 |  |
| CO[C@@H]1[C@@H](n2cc(-c3csc(O)n3)nn2)[C@@H](O)[C@@H](CO)O[C@@H]1Sc1cc(Cl)c(F)c(Cl)c1 [Example 7, 3,5-Dichloro-4-fluorophenyl 3-deoxy-3-[4-(2-hydroxythiazol-4-yl)-1H-1,2,3-triazol-1-yl]-2-O-methyl-1-thio-α-D-galactopyranoside] |  | 2600 | 29 |
| CC(C)O[C@@H]1[C@@H](n2cc(-c3csc(O)n3)nn2)[C@@H](O)[C@@H](CO)O[C@@H]1Sc1ccc(Cl)c(Cl)c1 [Example 8, 3,4-Dichlorophenyl 3-deoxy-3-[4-(2-hydroxythiazol-4-yl)-1H-1,2,3-triazol-1-yl]-2-O-isopropyl-1-thio-α-D-galactopyranoside] | 100 | > 100000 |  |
| CO[C@@H]1[C@@H](n2cc(-c3csc(O)n3)nn2)[C@@H](O)[C@@H](CO)O[C@@H]1Sc1ccc(Cl)c(Cl)c1 [Example 9, 3,4-Dichlorophenyl 3-deoxy-3-[4-(2-hydroxythiazol-4-yl)-1H-1,2,3-triazol-1-yl]-2-O-methyl-1-thio-α-D-galactopyranoside] |  | 4600 | 41 |
| OC[C@H]1O[C@H](Sc2ccc(Cl)c(Cl)c2)C[C@@H](n2cc(-c3csc(O)n3)nn2)[C@H]1O [Example 10, 3,4-Dichlorophenyl 2,3-dideoxy-3-[4-(2-hydroxythiazol-4-yl)-1H-1,2,3-triazol-1-yl]-1-thio-α-D-galactopyranoside] | 82 | 5300 |  |
| CO[C@@H]1[C@@H](n2cc(-c3nc(Cl)cs3)nn2)[C@@H](O)[C@@H](CO)O[C@@H]1Sc1cc(Br)cnc1C#N [Example 11, 5-Bromo-2-cyanopyridin-3-yl 3-[4-(4-chlorothiazol-2-yl)-1H-1,2,3-triazol-1-yl]-3-deoxy-2-O-methyl-1-thio-α-D-galactopyranoside] | 19 | 170 |  |
| CO[C@@H]1[C@@H](n2cc(-c3nc(Cl)cs3)nn2)[C@@H](O)[C@@H](CO)O[C@@H]1Sc1cnc(C#N)c(Br)c1 [Example 12, 3-Bromo-2-cyanopyridin-5-yl 3-[4-(4-chlorothiazol-2-yl)-1H-1,2,3-triazol-1-yl]-3-deoxy-2-O-methyl-1-thio-α-D-galactopyranoside] | 24 | 270 |  |
| CO[C@@H]1[C@@H](n2cc(-c3nc(Cl)cs3)nn2)[C@@H](O)[C@@H](CO)O[C@@H]1Sc1cc(Cl)cnc1C#N [Example 13, 5-Chloro-2-cyanopyridin-3-yl 3-[4-(4-chlorothiazol-2-yl)-1H-1,2,3-triazol-1-yl]-3-deoxy-2-O-methyl-1-thio-α-D-galactopyranoside] | 25 | 160 |  |
| CO[C@@H]1[C@@H](n2cc(-c3nc(Cl)cs3)nn2)[C@@H](O)[C@@H](CO)O[C@@H]1Sc1cnc(C#N)c(Cl)c1 [Example 14, 3-Chloro-2-cyanopyridin-5-yl 3-[4-(4-chlorothiazol-2-yl)-1H-1,2,3-triazol-1-yl]-3-deoxy-2-O-methyl-1-thio-α-D-galactopyranoside] | 30 | 370 |  |
| CO[C@@H]1[C@@H](n2cc(-c3csc(Cl)n3)nn2)[C@@H](O)[C@@H](CO)O[C@@H]1Sc1cc(Cl)cnc1C#N [Example 15, 5-Chloro-2-cyanopyridin-3-yl 3-[4-(2-chlorothiazol-4-yl)-1H-1,2,3-triazol-1-yl]-3-deoxy-2-O-methyl-1-thio-α-D-galactopyranoside] | 56 | 200 |  |
| CO[C@@H]1[C@@H](n2cc(-c3csc(N)n3)nn2)[C@@H](O)[C@@H](CO)O[C@@H]1Sc1cc(Cl)c(F)c(Cl)c1 [Example 16, 3,5-Dichloro-4-fluorophenyl 3-[4-(2-aminothiazol-4-yl)-1H-1,2,3-triazol-1-yl]-3-deoxy-2-O-methyl-1-thio-α-D-galactopyranoside] |  | 8400 | 69 |
| CO[C@@H]1[C@@H](n2cc(-c3csc(N)n3)nn2)[C@@H](O)[C@@H](CO)O[C@@H]1Sc1cc(Cl)cnc1C#N [Example 17, 5-Chloro-2-cyanopyridin-3-yl 3-[4-(2-aminothiazol-4-yl)-1H-1,2,3-triazol-1-yl]-3-deoxy-2-O-methyl-1-thio-α-D-galactopyranoside] | 33 | 1900 |  |
| CO[C@@H]1[C@@H](n2cc(-c3csc(N)n3)nn2)[C@@H](O)[C@@H](CO)O[C@@H]1Sc1cc(Cl)cnc1C [Example 18, 5-Chloro-2-methylpyridin-3-yl 3-[4-(2-aminothiazol-4-yl)-1H-1,2,3-triazol-1-yl]-3-deoxy-2-O-methyl-1-thio-α-D-galactopyranoside] | 120 | 5400 |  |
| N#Cc1ncc(Cl)cc1S[C@H]1O[C@H](CO)[C@H](O)[C@H](n2cc(-c3csc(N)n3)nn2)[C@H]1OCc1ccccc1 [Example 19, 5-Chloro-2-cyanopyridin-3-yl 3-[4-(2-aminothiazol-4-yl)-1H-1,2,3-triazol-1-yl]-2-O-benzyl-3-deoxy-1-thio-α-D-galactopyranoside] | 79 | 1800 |  |
| CCO[C@@H]1[C@@H](n2cc(-c3csc(N)n3)nn2)[C@@H](O)[C@@H](CO)O[C@@H]1Sc1cc(Cl)cnc1C [Example 20, 5-Chloro-2-methylpyridin-3-yl 3-[4-(2-aminothiazol-4-yl)-1H-1,2,3-triazol-1-yl]-3-deoxy-2-O-ethyl-1-thio-α-D-galactopyranoside] | 67 | 6200 |  |
| CO[C@@H]1[C@@H](n2cc(-c3csc(N)n3)nn2)[C@@H](O)[C@@H](CO)O[C@@H]1Sc1cc(Cl)cnc1-c1cncnc1 [Example 21, 5-Chloro-2-(pyrimidin-5-yl)pyridin-3-yl 3-[4-(2-aminothiazol-4-yl)-1H-1,2,3-triazol-1-yl]-3-deoxy-2-O-methyl-1-thio-α-D-galactopyranoside] | 45 | 2300 |  |
| CO[C@@H]1[C@@H](n2cc(-c3csc(N)n3)nn2)[C@@H](O)[C@@H](CO)O[C@@H]1Sc1cc(Cl)cnc1-c1ccncc1 [Example 22, 5-Chloro-2-(pyridin-4-yl)pyridin-3-yl 3-[4-(2-aminothiazol-4-yl)-1H-1,2,3-triazol-1-yl]-3-deoxy-2-O-methyl-1-thio-α-D-galactopyranoside] | 26 | 4100 |  |
| CO[C@@H]1[C@@H](n2cc(-c3csc(N)n3)nn2)[C@@H](O)[C@@H](CO)O[C@@H]1Sc1cc(Cl)cnc1-c1cccnc1 [Example 23, 5-Chloro-2-(pyridin-3-yl)pyridin-3-yl 3-[4-(2-aminothiazol-4-yl)-1H-1,2,3-triazol-1-yl]-3-deoxy-2-O-methyl-1-thio-α-D-galactopyranoside] | 30 | 4200 |  |
| CO[C@@H]1[C@@H](n2cc(-c3csc(N)n3)nn2)[C@@H](O)[C@@H](CO)O[C@@H]1Sc1cc(Cl)cnc1C1=CCNCC1 [Example 24, 5-Chloro-2-(1,2,3,6-tetrahydropyridin-4-yl)pyridin-3-yl 3-[4-(2-aminothiazol-4-yl)-1H-1,2,3-triazol-1-yl]-3-deoxy-2-O-methyl-1-thio-α-D-galactopyranoside] | 150 | 3300 |  |
| N#Cc1ncc(Cl)cc1S[C@H]1O[C@H](CO)[C@H](O)[C@H](n2cc(-c3csc(N)n3)nn2)[C@H]1OCc1cc(F)c(O)c(F)c1 [Example 25, 5-Chloro-2-cyanopyridin-3-yl 3-[4-(2-aminothiazol-4-yl)-1H-1,2,3-triazol-1-yl]-3-deoxy-2-O-(3,5-difluoro-4-hydroxybenzyl)-1-thio-α-D-galactopyranoside] | 24 | 740 |  |
| CO[C@@H]1[C@@H](n2cc(-c3csc(N)n3)nn2)[C@@H](O)[C@@H](CO)O[C@@H]1Sc1cc(Cl)cnc1-c1ccccn1 [Example 26, 5-Chloro-2-(pyridin-2-yl)pyridin-3-yl 3-[4-(2-aminothiazol-4-yl)-1H-1,2,3-triazol-1-yl]-3-deoxy-2-O-methyl-1-thio-α-D-galactopyranoside] | 17 | 1700 |  |
